# In PubChem BioAssay (NCI):
#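 Cells were grown in 96-well plates and exposed to each compound for 48 hours at five concentrations; endpoints were interpolated linearly between bracketing concentrations, or set to the highest concentration if not reached. At the GI50, growth is halved. TGI denotes the concentration required for complete inhibition of growth.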
# Columns and labels:
# Assay in all cases: NCI tumour cell line growth inhibition, 48 h
# HOP-62 NSCLC = tested on: HOP-62 NSCLC
# UACC-62 melanoma = tested on: UACC-62 melanoma
# ACHN renal = tested on: ACHN renal
# EKVX NSCLC = tested on: EKVX NSCLC
# UO-31 renal = tested on: UO-31 renal
# MOLT-4 leukemia = tested on: MOLT-4 leukemia
# HOP-92 NSCLC = tested on: HOP-92 NSCLC
# SF-295 CNS = tested on: SF-295 CNS
# HCT-116 colon = tested on: HCT-116 colon
# 786-0 renal = tested on: 786-0 renal
# MDA-MB-231 breast = tested on: MDA-MB-231 breast
# NCI/ADR-RES ovarian = tested on: NCI/ADR-RES ovarian
# SNB-19 CNS = tested on: SNB-19 CNS
# A498 renal = tested on: A498 renal
# MALME-3M melanoma = tested on: MALME-3M melanoma
# HS 578T breast = tested on: HS 578T breast
# RPMI-8226 leukemia = tested on: RPMI-8226 leukemia
# OVCAR-3 ovarian = tested on: OVCAR-3 ovarian
# SF-539 CNS = tested on: SF-539 CNS
# HT29 colon = tested on: HT29 colon
# CCRF-CEM leukemia = tested on: CCRF-CEM leukemia
# OVCAR-5 ovarian = tested on: OVCAR-5 ovarian
# NCI-H23 lung = tested on: NCI-H23 lung
# RXF 393 renal = tested on: RXF 393 renal
# U251 CNS = tested on: U251 CNS
# SW-620 colon = tested on: SW-620 colon
# OVCAR-8 ovarian = tested on: OVCAR-8 ovarian
# SK-MEL-5 melanoma = tested on: SK-MEL-5 melanoma
# K-562 leukemia = tested on: K-562 leukemia
# TK-10 renal = tested on: TK-10 renal
# NCI-H522 lung = tested on: NCI-H522 lung
# HL-60(TB) leukemia = tested on: HL-60(TB) leukemia
# IGROV1 ovarian = tested on: IGROV1 ovarian
# PC-3 prostate = tested on: PC-3 prostate
# KM12 colon = tested on: KM12 colon
# BT-549 breast = tested on: BT-549 breast
# UACC-257 melanoma = tested on: UACC-257 melanoma
# A549 NSCLC = tested on: A549 NSCLC
# HCC-2998 colon = tested on: HCC-2998 colon
# SF-268 CNS = tested on: SF-268 CNS
# OVCAR-4 ovarian = tested on: OVCAR-4 ovarian
# SK-MEL-2 melanoma = tested on: SK-MEL-2 melanoma
# SK-OV-3 ovarian = tested on: SK-OV-3 ovarian
# SN12C renal = tested on: SN12C renal
# SNB-75 CNS = tested on: SNB-75 CNS
# MDA-MB-435 = tested on: MDA-MB-435
# CAKI-1 renal = tested on: CAKI-1 renal
# SR leukemia = tested on: SR leukemia
# NCI-H226 lung = tested on: NCI-H226 lung
# HCT-15 colon = tested on: HCT-15 colon
# MCF7 breast = tested on: MCF7 breast
# LOX IMVI melanoma = tested on: LOX IMVI melanoma
# COLO 205 colon = tested on: COLO 205 colon
# DU-145 prostate = tested on: DU-145 prostate
# NCI-H460 lung = tested on: NCI-H460 lung
# M14 melanoma = tested on: M14 melanoma
# SK-MEL-28 melanoma = tested on: SK-MEL-28 melanoma
compound,measurement,setting,value
C[C@H](Nc1ccc2c(c1)OCCn1cc(N3C(=O)OC[C@H]3C(F)F)nc1-2)C(N)=O,GI50,HOP-62 NSCLC,17.5 µM
same,TGI,HOP-62 NSCLC,> 100 µM
same,GI50,UACC-62 melanoma,3.05 µM
same,TGI,UACC-62 melanoma,> 100 µM
same,GI50,ACHN renal,5 µM
same,TGI,ACHN renal,> 100 µM
same,GI50,EKVX NSCLC,4.91 µM
same,TGI,EKVX NSCLC,> 100 µM
same,GI50,UO-31 renal,1.57 µM
same,TGI,UO-31 renal,> 100 µM
same,GI50,MOLT-4 leukemia,2.89 µM
same,TGI,MOLT-4 leukemia,> 100 µM
same,GI50,HOP-92 NSCLC,0.183 µM
same,TGI,HOP-92 NSCLC,16.4 µM
same,GI50,SF-295 CNS,7.8 µM
same,TGI,SF-295 CNS,> 100 µM
same,GI50,HCT-116 colon,17.1 µM
same,TGI,HCT-116 colon,> 100 µM
same,GI50,786-0 renal,9.95 µM
same,TGI,786-0 renal,> 100 µM
same,GI50,MDA-MB-231 breast,16.4 µM
same,TGI,MDA-MB-231 breast,65.3 µM
same,GI50,NCI/ADR-RES ovarian,> 69.9 µM
same,TGI,NCI/ADR-RES ovarian,> 100 µM
same,GI50,SNB-19 CNS,25.3 µM
same,TGI,SNB-19 CNS,> 100 µM
same,GI50,A498 renal,2.09 µM
same,TGI,A498 renal,10.2 µM
same,GI50,MALME-3M melanoma,> 20.7 µM
same,TGI,MALME-3M melanoma,> 100 µM
same,GI50,HS 578T breast,1.77 µM
same,TGI,HS 578T breast,68.1 µM
same,GI50,RPMI-8226 leukemia,31.3 µM
same,TGI,RPMI-8226 leukemia,> 100 µM
same,GI50,OVCAR-3 ovarian,6.26 µM
same,TGI,OVCAR-3 ovarian,> 100 µM
same,GI50,SF-539 CNS,3.12 µM
same,TGI,SF-539 CNS,43.8 µM
same,GI50,HT29 colon,0.153 µM
same,TGI,HT29 colon,> 100 µM
same,GI50,CCRF-CEM leukemia,7.93 µM
same,TGI,CCRF-CEM leukemia,> 100 µM
same,GI50,OVCAR-5 ovarian,0.421 µM
same,TGI,OVCAR-5 ovarian,> 82.6 µM
same,GI50,NCI-H23 lung,38.5 µM
same,TGI,NCI-H23 lung,> 100 µM
same,GI50,RXF 393 renal,5.56 µM
same,TGI,RXF 393 renal,45.8 µM
same,GI50,U251 CNS,> 77.6 µM
same,TGI,U251 CNS,> 100 µM
same,GI50,SW-620 colon,20.5 µM
same,TGI,SW-620 colon,> 100 µM
same,GI50,OVCAR-8 ovarian,> 68.3 µM
same,TGI,OVCAR-8 ovarian,> 100 µM
same,GI50,SK-MEL-5 melanoma,20.8 µM
same,TGI,SK-MEL-5 melanoma,> 100 µM
same,GI50,K-562 leukemia,> 100 µM
same,TGI,K-562 leukemia,> 100 µM
same,GI50,TK-10 renal,0.517 µM
same,TGI,TK-10 renal,> 91.2 µM
same,GI50,NCI-H522 lung,> 100 µM
same,TGI,NCI-H522 lung,> 100 µM
same,GI50,HL-60(TB) leukemia,0.413 µM
same,TGI,HL-60(TB) leukemia,> 100 µM
same,GI50,IGROV1 ovarian,0.0199 µM
same,TGI,IGROV1 ovarian,0.215 µM
same,GI50,PC-3 prostate,3.81 µM
same,TGI,PC-3 prostate,> 100 µM
same,GI50,KM12 colon,46.9 µM
same,TGI,KM12 colon,> 100 µM
same,GI50,BT-549 breast,5.4 µM
same,TGI,BT-549 breast,> 100 µM
same,GI50,UACC-257 melanoma,11.5 µM
same,TGI,UACC-257 melanoma,> 100 µM
same,GI50,A549 NSCLC,4.82 µM
same,TGI,A549 NSCLC,> 100 µM
same,GI50,HCC-2998 colon,1.92 µM
same,TGI,HCC-2998 colon,> 100 µM
same,GI50,SF-268 CNS,29 µM
same,TGI,SF-268 CNS,> 100 µM
same,GI50,OVCAR-4 ovarian,79.4 µM
same,TGI,OVCAR-4 ovarian,> 100 µM
same,GI50,SK-MEL-2 melanoma,> 100 µM
same,TGI,SK-MEL-2 melanoma,> 100 µM
same,GI50,SK-OV-3 ovarian,0.0307 µM
same,TGI,SK-OV-3 ovarian,0.809 µM
same,GI50,SN12C renal,13 µM
same,TGI,SN12C renal,> 100 µM
same,GI50,SNB-75 CNS,0.0619 µM
same,TGI,SNB-75 CNS,5.12 µM
same,GI50,MDA-MB-435,25.6 µM
same,TGI,MDA-MB-435,> 100 µM
same,GI50,CAKI-1 renal,4.88 µM
same,TGI,CAKI-1 renal,> 100 µM
same,GI50,SR leukemia,38.6 µM
same,TGI,SR leukemia,> 100 µM
same,GI50,NCI-H226 lung,> 62 µM
same,TGI,NCI-H226 lung,> 100 µM
same,GI50,HCT-15 colon,0.52 µM
same,TGI,HCT-15 colon,> 100 µM
same,GI50,MCF7 breast,0.0354 µM
same,TGI,MCF7 breast,> 100 µM
same,GI50,LOX IMVI melanoma,4.8 µM
same,TGI,LOX IMVI melanoma,40.4 µM
same,GI50,COLO 205 colon,2.3 µM
same,TGI,COLO 205 colon,> 100 µM
same,GI50,DU-145 prostate,20.3 µM
same,TGI,DU-145 prostate,> 100 µM
same,GI50,NCI-H460 lung,1.08 µM
same,TGI,NCI-H460 lung,> 100 µM
same,GI50,M14 melanoma,68.5 µM
same,TGI,M14 melanoma,> 100 µM
same,GI50,SK-MEL-28 melanoma,7.3 µM
same,TGI,SK-MEL-28 melanoma,> 100 µM
